The source of these data is PubChem BioAssay (NCI).

Values joined by “and” are separate entries in the source; they are usually repeats but may differ in a detail not shown here. Identical values can stand only once.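 Interpolation was linear, between the two tested concentrations surrounding the appropriate level; five concentrations were tested over 48 hours in 96-well plates. GI50 = concentration required for 50% inhibition of growth. TGI is the concentration that stops growth completely.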 Some results are limits rather than exact numbers.

Test systems include CCRF-CEM leukemia; HOP-62 NSCLC; HOP-92 NSCLC; K-562 leukemia; KM12 colon; NCI-H23 lung; SN12C renal; SW-620 colon; UACC-257 melanoma.
Holding throughout (test): NCI-60 cell line screen, 48 h

For the compound `OC(CN1CC1)C(O)CN1CC1` (stereo not drawn), the GI50 in the assay on CCRF-CEM leukemia, in the assay with HOP-62 NSCLC, in the assay with HOP-92 NSCLC, with K-562 leukemia, in the assay on KM12 colon and with NCI-H23 lung was > 50 µg/mL throughout. Further, the GI50 in the assay with SN12C renal, in the assay with SW-620 colon and in the assay on UACC-257 melanoma was > 50 µg/mL in each case. The TGI in the assay with CCRF-CEM leukemia, in the assay with HOP-62 NSCLC, in the assay on HOP-92 NSCLC, in the assay on K-562 leukemia, with KM12 colon and with NCI-H23 lung was > 50 µg/mL each time. Further, the TGI with SN12C renal, with SW-620 colon and with UACC-257 melanoma was > 50 µg/mL in each case.

In the case of `OB1OCc2cc(/C=C/c3cccc(C(F)(F)F)c3)ccc21`, the GI50 in the assay with CCRF-CEM leukemia is 459 nM; in the assay with HOP-62 NSCLC, 483 nM; in the assay with HOP-92 NSCLC, 712 nM; in the assay on K-562 leukemia it was 930 nM; in the assay on KM12 colon it was 2260 nM; with NCI-H23 lung it was 625 nM. For the same compound, the GI50 is 1460 nM with SN12C renal, 1570 nM in the assay on SW-620 colon and 4.31 µM with UACC-257 melanoma. Further, the TGI is 33.7 µM in the assay on CCRF-CEM leukemia; 17.4 µM in the assay with HOP-62 NSCLC; 10.7 µM in the assay with HOP-92 NSCLC; 24.2 µM with K-562 leukemia; > 100 µM with KM12 colon; 80.6 µM in the assay on NCI-H23 lung. Moreover, the TGI in the assay on SN12C renal, with SW-620 colon and in the assay with UACC-257 melanoma was > 100 µM in each case.

Take `CC(=O)N[C@H](C(=O)N[C@@H](CCCNC(=N)N)C(=O)N[C@@H](CCCCN)C(=O)N[C@@H](CCCNC(=N)N)C(=O)N[C@]1(C)CCCCCC/C=C\CCC[C@@](C)(C(=O)N[C@@H](CCCNC(=N)N)C(=O)N[C@@H](CCC(=O)O)C(=O)N[C@@H](CC(C)C)C(=O)N[C@H](C(=O)N[C@@H](CCC(=O)O)C(N)=O)C(C)C)NC(=O)[C@H](CCC(N)=O)NC(=O)[C@H](CC(C)C)NC(=O)[C@H](CC(C)C)NC(=O)[C@H](CCCNC(=N)N)NC(=O)[C@H](CCCNC(=N)N)NC(=O)[C@H](CC(C)C)NC1=O)C(C)C`: the GI50 was 7280 nM in the assay on CCRF-CEM leukemia; 2350 nM with HOP-62 NSCLC; 1730 nM in the assay on HOP-92 NSCLC; 5420 nM with K-562 leukemia; 1300 nM in the assay with KM12 colon; 2770 nM in the assay with NCI-H23 lung. For the same compound, the GI50 with SN12C renal was 2330 nM; with SW-620 colon, 7840 nM. In addition, the TGI was 26.7 µM in the assay on CCRF-CEM leukemia; 22.5 µM with HOP-62 NSCLC; 8.43 µM in the assay with HOP-92 NSCLC; 21.6 µM in the assay on K-562 leukemia; 3.77 µM in the assay on KM12 colon; 30.1 µM in the assay on NCI-H23 lung. Also, the TGI is > 50 µM with SN12C renal and 20.2 µM in the assay on SW-620 colon.

For the compound `CCC1=C[C@@H]2CN(C1)Cc1c([nH]c3ccccc13)[C@@](C(=O)OC)(c1cc3c(cc1OC)N(C)[C@H]1[C@@](O)(C(=O)OC)[C@H](OC(C)=O)[C@]4(CC)[C@@H]5C[C@@H]5CN5CC[C@]31[C@@H]54)C2`, the GI50 with CCRF-CEM leukemia is < 5 nM; in the assay on HOP-62 NSCLC it was < 5 nM; in the assay on HOP-92 NSCLC, < 5 nM; in the assay with K-562 leukemia, < 5 nM; in the assay with KM12 colon, < 5 nM; with NCI-H23 lung, < 5 nM and 49.2 nM. The GI50 in the assay with SW-620 colon was < 5 nM. Also, the TGI is 6.94 µM and 16.7 µM in the assay on HOP-62 NSCLC; 0.353 µM in the assay with HOP-92 NSCLC; 6.54 µM and 11.1 µM in the assay with KM12 colon; 10.2 µM and 38.4 µM in the assay with NCI-H23 lung; 7.54 µM and 18.5 µM with SN12C renal; 9.16 µM and 21 µM in the assay on SW-620 colon. Besides, in the assay with UACC-257 melanoma, the TGI was 7.53 µM and 15.6 µM.

For `O=C1C(Cl)=C(Nc2ccccc2)C(=O)c2ccccc21`, the GI50 was 2370 nM in the assay with CCRF-CEM leukemia; 12800 nM with HOP-62 NSCLC; 1280 nM with HOP-92 NSCLC; 648 nM with K-562 leukemia; 6230 nM in the assay on KM12 colon; 1920 nM with NCI-H23 lung. The figures for the GI50 in the assay with SN12C renal, with SW-620 colon and in the assay on UACC-257 melanoma were 1820 nM, 1090 nM and 1.83 µM, respectively. Further, the TGI in the assay with CCRF-CEM leukemia was > 100 µM; in the assay with HOP-62 NSCLC it was 26.8 µM; with HOP-92 NSCLC, 2.64 µM; with K-562 leukemia it was > 100 µM; in the assay with KM12 colon it was > 100 µM; with NCI-H23 lung it was 4.25 µM. Besides, the TGI was determined as 3.59 µM in the assay with SN12C renal, 2.92 µM in the assay on SW-620 colon and 3.3 µM in the assay with UACC-257 melanoma.

As for `CN(C)Cc1c[nH]c2c(NCCN)c3c(c(NCCN)c12)C(=O)c1ccccc1C3=O`, the GI50 in the assay with CCRF-CEM leukemia is 1060 nM; in the assay with HOP-62 NSCLC, 1310 nM; with HOP-92 NSCLC, 1530 nM; in the assay on K-562 leukemia, 516 nM; with KM12 colon, 1590 nM; with NCI-H23 lung, 2220 nM. Moreover, the GI50 in the assay with SN12C renal is 372 nM; in the assay on SW-620 colon it was 2350 nM; in the assay on UACC-257 melanoma it was 6.18 µM. Besides, the TGI in the assay with CCRF-CEM leukemia is 8.93 µM; with HOP-62 NSCLC it was 6.39 µM; in the assay with HOP-92 NSCLC, 5.49 µM; with K-562 leukemia, > 100 µM; in the assay with KM12 colon it was 7.11 µM; in the assay on NCI-H23 lung, 8.99 µM. The TGI in the assay with SN12C renal was 1.88 µM; with SW-620 colon, 7.87 µM; with UACC-257 melanoma, > 23.8 µM.

With `NC(=O)c1cccc(Nc2nccc(Nc3cccc(F)c3)n2)c1`, the GI50 was 8540 nM with CCRF-CEM leukemia; 8240 nM with HOP-62 NSCLC; 2660 nM with HOP-92 NSCLC; 8130 nM in the assay with K-562 leukemia; 7270 nM in the assay with KM12 colon; 10600 nM with NCI-H23 lung. For the same compound, the values for the GI50 with SN12C renal, with SW-620 colon and in the assay with UACC-257 melanoma were 7980 nM, 7110 nM and 12.2 µM, respectively. The TGI in the assay on CCRF-CEM leukemia was > 25 µM; in the assay with HOP-62 NSCLC, > 22.5 µM; in the assay on HOP-92 NSCLC, 18.1 µM; in the assay on K-562 leukemia, > 25 µM; in the assay with KM12 colon it was > 25 µM; in the assay on NCI-H23 lung, > 25 µM. The TGI in the assay on SN12C renal was > 25 µM; with SW-620 colon it was > 24 µM; with UACC-257 melanoma, > 25 µM.

For the compound `C=C1CC2(OC1=O)C(=O)N(CCCN1C(=O)C3(CC(=C)C(=O)O3)c3ccccc31)c1ccccc12` (stereo not drawn), the GI50 with CCRF-CEM leukemia is 416 nM; in the assay with HOP-62 NSCLC it was 7340 nM; with HOP-92 NSCLC, 1330 nM; with K-562 leukemia, 385 nM; in the assay on KM12 colon it was 2720 nM; with NCI-H23 lung it was 2340 nM. Besides, the GI50 is 2290 nM in the assay on SN12C renal, 594 nM with SW-620 colon and 1.66 µM with UACC-257 melanoma. Also, the TGI in the assay with CCRF-CEM leukemia amounted to 2.5 µM; in the assay with HOP-62 NSCLC, 21.8 µM; with HOP-92 NSCLC, 2.76 µM; with K-562 leukemia, 2.07 µM; in the assay on KM12 colon, 12 µM; in the assay on NCI-H23 lung, 6.14 µM. In addition, the TGI in the assay on SN12C renal was determined as 6.26 µM; in the assay with SW-620 colon, 2.08 µM; in the assay on UACC-257 melanoma it was 3.95 µM.
